{
  "source": "patent US10632324B2",
  "about": "“Method for the treatment of skin tissues” (9127-4910 Quebec Inc., priority 2017, dated 2020)",
  "key": {"cystic acne [1]": {"test_system": "cystic acne", "assay": "Split face/back pre-PDT radiant IR study, 11 cystic acne patients (Example 7)", "type": "in vivo, human", "conditions": "IR 970 nm 50 mW/cm2 15 min before 5-ALA; one month after PDT; most patients", "description": "(§1) Study Design/Materials and Methods: Eleven (11) patients were enrolled in a split face or split back (pre-treated side versus control) study with a pre-approved IRB protocol. […] Lesion count was assessed both manually and by digital photography before and 4 weeks after one PDT procedure. Prior to the application of 5-ALA, one side of the face or back was pre-treated with radiant IR [CW LEDs emitting @λ 970 nm, irradiance 50 mW/cm2 for 15 minutes, total fluence 45 J/cm2], while the other half was used as control. PDT was then performed on the entire surface (face or back)."}, "[2]": {"test_system": "actinic keratosis lesions", "assay": "Split-face radiant IR skin preparation prior to PDT, actinic keratosis of face and scalp (Example 5)", "conditions": "single PDT treatment"}, "cystic acne [3]": {"test_system": "cystic acne", "assay": "Split face/back pre-PDT radiant IR study, 10 cystic acne patients (Example 8)", "type": "in vivo, human", "conditions": "for decrease in the number of cystic lesions: one month after PDT", "description": "as §1, with “In summary, ten” for “Study Design/Materials and Methods: Eleven (11)”, “back) using 5-ALA in a conventional manner.” for “back).”\nPatients were assigned to a split face or split back group. One side was pre-treated for 15 minutes with radiant IR [CW LEDs emitting @λ 970 nm, irradiance 50 mW/cm^2, total fluence 45 J/cm^2] to obtain a temperature of about 42 Celsius, while the other side was used as control. ALA was then applied after which PDT was performed on the entire face or back surface. Lesion count was assessed manually and by digital photography, before and 4 weeks after the PDT procedure. Exclusion criteria were: current use of the following medications: (Prednisone), anticoagulant therapy, drugs known to cause photo-sensitivity reactions. In addition, during 12 months preceding the study, subjects are required not to take Accutane (isotretinoin); use of corticosteroids on the treated area within 2 weeks of first treatment; use of topical tretinoin (like Retisol-A, Retin-A, Vitamin A acid, Retin-A micro) for at least 1 month prior to enrollment; yanned skin around or on the area to be treated: the back. previous laser of medicated treatment at the treatment site (to be studied) and for the duration of the study; presence of any known diseases among vitiligo, psoriasis, severe eczema, poor skin healing. active infection, immunosuppression, coagulation problem, peripheral arterial disease, hematologic abnormalities, vasculitis, and previous history of epilepsy; pregnancy; alcohol or drug abuse before and during the study.\nAfter the pre-treatment with IR radiation, 5-ALA was applied onto slightly abraded skin and left to incubate for 60 minutes on both IR-pre-treated and control sides. Then, the 5-ALA treated regions were irradiated with a LED source of red light (wavelength of […], in accordance to standard therapy, until a mild to moderate erythema appeared. Immediately afterwards, the 5-ALA treated regions were irradiated with a LED source of blue light (wavelength of 405 nm, power density 30 mW/cm^2) in continuous wave mode for 3 min."}, "[4]": {"test_system": "facial papulo-pustular inflammatory acne lesions", "assay": "Split-face radiant IR skin preparation prior to PDT, inflammatory acne of the face (Example 6)", "type": "in vivo, human", "description": "A person was treated for facial papulo-pustular inflammatory acne lesions. After performing an acetone scrub on the treatment area, a radiant IR skin preparation was done on the right side of their face (970 nm, 80 mW/cm2, for 30 min). Then 5-aminolevulinic acid (Levulan™ Kerastick™) was applied to the skin and left for 90 min incubation time. […] Radiant IR skin preparation allows for a reduction in the number of PDT treatments necessary for significant clinical improvements."}},
  "data": [
    {"smiles": "NCC(=O)CCC(=O)O", "note": "[5-ALA, 5-aminolevulinic acid]", "values": [
      {"measurement": "number of cystic lesions, pre-treated versus control side", "setting": "cystic acne [1]", "result": "statistically significant decrease in the number of cystic lesions"},
      {"measurement": "lesion clearance", "setting": "[2]; left side, no IR pre-treatment", "result": 40, "unit": "%"},
      {"measurement": "lesion clearance", "setting": "[2]; right side, IR pre-treated (970 nm, 40 mW/cm2, 30 min), 90 min incubation", "result": 60, "unit": "%"},
      {"measurement": "decrease in the number of cystic lesions", "setting": "cystic acne [3]; IR pre-treated side (970 nm, 50 mW/cm2, 15 min)", "result": 72.5, "unit": "%"},
      {"measurement": "mean+/-standard error number of lesions after treatment", "setting": "cystic acne [3]; IR treated site, baseline 49.7+/-13.7", "result": "12.0+/−2.3"},
      {"measurement": "treatment-related adverse effects", "setting": "cystic acne [3]; both sides", "result": "No treatment-related adverse effects were reported"},
      {"measurement": "decrease in the number of cystic lesions", "setting": "cystic acne [3]; control side (no IR)", "result": 47.1, "unit": "%"},
      {"measurement": "mean+/-standard error number of lesions after treatment", "setting": "cystic acne [3]; control side, baseline 35.9+/-8.3", "result": "16.3+/−3"},
      {"measurement": "lesion number reduction", "setting": "[4]; IR treated side (970 nm, 80 mW/cm2, 30 min), 90 min incubation, one treatment", "result": "60-70%"},
      {"measurement": "clinical outcome of side without IR", "setting": "[4]; untreated (no IR) side, PDT alone", "result": "needed an additional PDT session to achieve similar results"}
    ]}
  ]
}
